Patent publication US9695205B2, “Amide compounds for treatment of complement mediated disorders” (Achillion Pharmaceuticals, Inc., priority 2014, dated 2017)

Target: Human factor D (Homo sapiens (Human), UniProt P00746)
Assay: Human Factor D Assay
Format: biochemical
Conditions: Human factor D 80 nM, substrate Z-L-Lys-SBzl and DTNB 100 μM each, pH 7.5
Method: Example 14. Human Factor D Assay
Human factor D (purified from human serum, Complement Technology, Inc.) at 80 nM final concentration is incubated with test compound at various concentrations for 5 minutes at room temperature in 50 mM Tris, 1M NaCl, pH 7.5. A synthetic substrate Z-L-Lys-SBzl and DTNB (Ellman's reagent) are added to final concentrations of 100 μM each. The increase in color is recorded at OD405 nm in a microplate in kinetic mode over 30 minutes with 30 second time points in a spectrofluorimeter. IC50 values are calculated by non-linear regression from the percentage of inhibition of complement factor D activity as a function of test compound concentration.

Sequence of Human factor D (P00746 26-253): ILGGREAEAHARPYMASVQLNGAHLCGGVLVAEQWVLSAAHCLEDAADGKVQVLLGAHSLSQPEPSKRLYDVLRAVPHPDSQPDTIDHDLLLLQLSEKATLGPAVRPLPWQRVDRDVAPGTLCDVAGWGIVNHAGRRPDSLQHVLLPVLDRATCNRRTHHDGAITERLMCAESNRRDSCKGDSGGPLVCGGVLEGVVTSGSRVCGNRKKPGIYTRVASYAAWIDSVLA

## NC(=O)c1nn(CC(=O)N2[C@@H]3C[C@@H]3C[C@H]2C(=O)Nc2cccc(-c3ccccc3Cl)c2F)c2ccc(NC(=O)N3CCCC(F)(F)C3)cc12 [Compound 28, 1-(2-((1R,3S,5R)-3-(2′-chloro-2-fluorobiphenyl-3-ylcarbamoyl)-2-azabicyclo[3.1.0]hexan-2-yl)-2-oxoethyl)-5-(3,3-difluoropiperidine-1-carboxamido)-1H-indazole-3-carboxamide]
  IC50: < 1000 nM

## NC(=O)c1nn(CC(=O)N2C[C@H](F)C[C@H]2C(=O)Nc2cccc(-c3ncccc3Cl)c2F)c2ccc(NC(=O)N3CCCC(F)(F)C3)cc12 [Compound 29, 1-(2-((2S,4R)-2-(3-(3-chloropyridin-2-yl)-2-fluorophenylcarbamoyl)-4-fluoropyrrolidin-1-yl)-2-oxoethyl)-5-(3,3-difluoropiperidine-1-carboxamido)-1H-indazole-3-carboxamide]
  IC50: < 1000 nM

## NC(=O)c1nn(CC(=O)N2C[C@H](F)C[C@H]2C(=O)Nc2cccc(-c3ccccc3Cl)c2F)c2ccc(NC(=O)N3CCC(F)(F)C3)cc12 [Compound 30, 1-(2-((2S,4R)-2-(2′-chloro-2-fluorobiphenyl-3-ylcarbamoyl)-4-fluoropyrrolidin-1-yl)-2-oxoethyl)-5-(3,3-difluoropyrrolidine-1-carboxamido)-1H-indazole-3-carboxamide]
  IC50: < 1000 nM

## NC(=O)c1nn(CC(=O)N2C[C@H](F)C[C@H]2C(=O)Nc2cccc(-c3ccccc3Cl)c2F)c2ccc(NC(=O)N3CCC(F)(F)CC3)cc12 [Compound 31, 1-(2-((2S,4R)-2-(2′-chloro-2-fluorobiphenyl-3-ylcarbamoyl)-4-fluoropyrrolidin-1-yl)-2-oxoethyl)-5-(4,4-difluoropiperidine-1-carboxamido)-1H-indazole-3-carboxamide]
  IC50: < 1000 nM

## NC(=O)c1nn(CC(=O)N2C[C@H](F)C[C@H]2C(=O)Nc2cccc(-c3ccccc3Cl)c2F)c2ccc(NC(=O)NCc3ncccn3)cc12 [Compound 32, 1-(2-((2S,4R)-2-(2′-chloro-2-fluorobiphenyl-3-ylcarbamoyl)-4-fluoropyrrolidin-1-yl)-2-oxoethyl)-5-(3-(pyrimidin-2-ylmethyl)ureido)-1H-indazole-3-carboxamide]
  IC50: < 1000 nM

## NC(=O)c1nn(CC(=O)N2C[C@H](F)C[C@H]2C(=O)Nc2cccc(Br)n2)c2ccc(NC(=O)N3CCCC(F)(F)C3)cc12 [Compound 33, 1-(2-((2S,4R)-2-(6-bromopyridin-2-ylcarbamoyl)-4-fluoropyrrolidin-1-yl)-2-oxoethyl)-5-(3,3-difluoropiperidine-1-carboxamido)-1H-indazole-3-carboxamide]
  IC50: < 1000 nM

## NC(=O)c1nn(CC(=O)N2[C@@H]3C[C@@H]3C[C@H]2C(=O)Nc2cccc(Br)n2)c2ccc(NC(=O)N3CCCC(F)(F)C3)cc12 [Compound 34, 1-(2-((1R,3S,5R)-3-(6-bromopyridin-2-ylcarbamoyl)-2-azabicyclo[3.1.0]hexan-2-yl)-2-oxoethyl)-5-(3,3-difluoropiperidine-1-carboxamido)-1H-indazole-3-carboxamide]
  IC50: < 1000 nM

## CC(=O)c1cn(CC(=O)N2C[C@H](F)C[C@H]2C(=O)Nc2cccc(-c3ccccc3Cl)c2F)c2ccc(NC(=O)C3CCC(F)(F)C3)cc12 (stereo partly drawn) [Compound 35, (2S,4R)-1-(2-(3-acetyl-5-(3,3-difluorocyclopentanecarboxamido)-1H-indol-1-yl)acetyl)-N-(2′-chloro-2-fluorobiphenyl-3-yl)-4-fluoropyrrolidine-2-carboxamide]
  IC50: < 1000 nM

## CC(=O)c1cn(CC(=O)N2C[C@H](F)C[C@H]2C(=O)Nc2cccc(-c3ccccc3Cl)c2F)c2ccc(NC(=O)CC(F)(F)F)cc12 [Compound 36, (2S,4R)-1-(2-(3-acetyl-5-(3,3,3-trifluoropropanamido)-1H-indol-1-yl)acetyl)-N-(2′-chloro-2-fluorobiphenyl-3-yl)-4-fluoropyrrolidine-2-carboxamide]
  IC50: < 1000 nM
